5 compounds from patent publication US20020182694A1, “Novel gene and polypeptide which opposes the Fas pathway” (priority 2001, published 2002) can be followed below.

Assay [1] relates to HeLa cells. Description: Fas induced killing of HeLa cells treated with pharmacological agents, count of viable trypan blue excluding cells. It is filed as cell-based, human. The settings on record: for effect on Fas induced PCD of HeLa cells, in words (viable cell count): anti-Fas antibody treated HeLa cells, NAC: 50 ng/ml anti-Fas, 5 days, FIG. 6, 8E, 8G, 8H. As to the method:
HeLa cells, 1.6×10^5 cells/well were plated in 6 wells plates. 20-24 hours later cells were treated with various concentrations of sulfinpyrazone (Sigma/Aldrich) in 1% DMSO for 15 minutes prior to the addition of 200 ng/ml anti-Fas antibody (clone CH-11, Kamiya Biomedical Company). The number of viable, trypan blue (Gibco/BRL) excluding cells that remained attached to the plate following rinsing with PBS was counted 17 hours post treatment. […]

Assay [2] relates to HeLa cells. Description: Apoptotic index (DAPI staining) of HeLa cells treated with anti-Fas antibody. It is filed as cell-based, human. The procedure: To generate HeLa cells that over-express Nrf2, the human Nrf2 cDNA (Moi et al. 1994) was cloned into the retrovirus expression vector pBABEpuro (Morgenstern and Land 1990) by standard methods. The plasmid was transiently transfected into […] and virus was collected at 36, 48, 60 and 72 hours post transfection. At each time point, freshly collected virus stock was filtered through a […], mixed with […] polybrene (Sigma/Aldrich) and applied to HeLa cells. 24 hours after the last addition of the virus, the cells were subjected to selection in […] Puromycin (Sigma/Aldrich). The pool of Puromycin resistant colonies was expanded. […] Apoptotic index was calculated as the ratio of number of dead cells (containing condensed and/or fragmented chromosomes) to the total number of cells. Average apoptotic index calculated from ten fields from duplicate wells is presented.
For bioassays, HeLa cells, at 8.3×10^4 cells/well were plated in 12 wells plates. […] 20 hours later the apoptotic index of treated cells was determined as described for the Nrf2 bioassays.
HeLa cells, 1.6×10^5 cells/well were plated in 6 wells plates. […] The number of viable, trypan blue (Gibco/BRL) excluding cells that remained attached to the plate following rinsing with PBS was counted 17 hours post treatment. Alternatively, the apoptotic index of treated cells was determined as described for the Nrf2 bioassays.

The target in assay [3] is Fas/CD95/Apo-1 on HeLa cells (human) (UniProt P25445). Description: cell-based or functional assay.
Chain of UniProt P25445 (P25445 26-335): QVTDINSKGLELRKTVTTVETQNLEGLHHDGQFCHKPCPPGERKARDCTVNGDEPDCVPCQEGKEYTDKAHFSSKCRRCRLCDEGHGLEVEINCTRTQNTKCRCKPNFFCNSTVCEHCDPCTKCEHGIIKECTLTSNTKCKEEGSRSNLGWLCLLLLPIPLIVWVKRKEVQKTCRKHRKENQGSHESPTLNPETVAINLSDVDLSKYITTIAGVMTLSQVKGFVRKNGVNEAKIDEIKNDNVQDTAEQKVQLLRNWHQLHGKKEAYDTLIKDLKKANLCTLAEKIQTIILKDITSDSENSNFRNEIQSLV

For the compound `NCCNS(=O)(=O)c1ccc(Cl)c2ccncc12` [CKI-7, N-(2-aminoethyl)-5-chloroisoquinoline-8-sulfonamide], in the assay on HeLa cells [1] (CKI-7 in 1% DMSO added an hour before 200 ng/ml anti-FAS antibody, counted 17 hours post treatment, FIG. 6), the “fold more sensitive to FAS induced PCD than the untreated cells” value stood at 3.9 fold. Besides, in the assay on HeLa cells [1], the “effect on Fas induced PCD of HeLa cells, in words (viable cell count)” value (from here on “effect on Fas induced PCD … (viable cell count)”) is “sensitizes”.
On to `O=c1oc2ccccc2c(O)c1Cc1c(O)c2ccccc2oc1=O` [Dicumarol], for which the “killing (apoptotic index) in cells treated with anti-Fas antibody and Dicumarol” value in the assay on HeLa cells [2] (100 uM Dicumarol, 200 ng/ml anti-Fas antibody, vehicle (0 uM) approximately 25%, FIG. 8F) is on record as “approximately 100%”. The “effect on Fas induced PCD of HeLa cells, in words (apoptotic index)” value in the assay with HeLa cells [2] (anti-Fas antibody treated HeLa cells, FIG. 8C, 8D, 8F legends) is given as “sensitizes”. In addition, in the assay on HeLa cells [1] (100 uM Dicumarol, 200 ng/ml anti-Fas antibody, counted 17 hours post treatment, FIG. 8E), the “fold more sensitive to Fas induced killing compared to cells treated with vehicle, measured by the number of viable cells” value worked out at 2.8 fold. For the same compound, the “effect on Fas induced PCD … (viable cell count)” value in the assay with HeLa cells [1] was “sensitizes”.
Take `CC(=O)N[C@@H](CS)C(=O)O` [NAC, N-acetyl Cysteine]: the results for the “effect on Fas induced PCD … (viable cell count)” value in the assay with HeLa cells [1] and in the assay on HeLa cells [1] (listed as N-acetyl cysteine) were “strongly protects” and “protects”, respectively.
On to `O=C1C(CC[S+]([O-])c2ccccc2)C(=O)N(c2ccccc2)N1c1ccccc1` (stereo not shown) [sulfinpyrazone], for which the “sensitization to Fas induced killing compared to treatment with vehicle alone” value in the assay on HeLa cells [1] (2 mM sulfinpyrazone, 200 ng/ml anti-Fas antibody, counted 17 hours post treatment, FIG. 8G) is on record as “approximately 4 fold”.
In assay [3], “Anti-Fas antibody (clone CH-11, Kamiya Biomedical Company, catalog number MC-060)” gave an apoptotic index (DAPI staining), HeLa cells infected with vector alone (Control-1) of 89%; an apoptotic index (DAPI staining), HeLa cells infected with vector alone (Control-2) of 87%; an apoptotic index (DAPI staining), HeLa cells with vehicle of 25%; an apoptotic index (DAPI staining), HeLa cells with vehicle (0 uM Dicumarol) of 25%.
